From the supplement of paper PMC7695840
“And” between values parts separate entries of the source, which are not always exact repeats. Equal values may be shown once. Where a name gives a salt, the structure may show the parent alone.

Legend:
[1] = test system: Staphylococcus aureus MW2 (mecA+); experiment: IC50 (growth, competition assay); details: cefoxitin: subinhibitory
Outline: (§1)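 Pre-induced, 1:1-mixed fluorescent S. aureus MW2 mecA+ and ΔmecA strains were grown 20 h at 37 °C, 90% humidity, unshaken, in LB with a daily-set subinhibitory cefoxitin dose, in 1536-well plates. Compounds were given on five- or nine-point 2-fold gradients, in two dye-swapped replicates. DsRed (540/590) and GFP (485/520) were scaled per plate between single-strain control medians, with No Treatment then set to 0.5. Per-strain IC50 was the dose halving the No Treatment signal, or the maximal signal.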

[2] = test system: Staphylococcus aureus MW2 delta-mecA (mecA-); experiment: IC50 (growth, competition assay); details: cefoxitin: subinhibitory
Outline: as §1

Row | Structure (SMILES) | IC50 ([1]; fluorescent label: DsRed) | IC50 ([1]; fluorescent label: GFP) | IC50 ([2]; fluorescent label: DsRed) | IC50 ([2]; fluorescent label: GFP) [µM]
1 | COc1c(N2CCNC(C)C2)c(F)cc2c(=O)c(C(=O)O)cn(C3CC3)c12 (centres undefined) [TEQUIN] | < 9.85 µM | < 9.85 µM | < 9.85 µM | < 9.85
2 | CN(C)[C@@H]1C(O)=C(C(N)=O)C(=O)[C@@]2(O)C(O)=C3C(=O)c4c(O)cccc4[C@@](C)(O)[C@H]3[C@H](O)[C@@H]12 [TERRAMYCIN] | < 9.85 µM | < 9.85 µM | < 9.85 µM | < 9.85
3 | O=C(O)Cc1cc(I)c(Oc2cc(I)c(O)c(I)c2)c(I)c1 [TETRAC] | < 9.85 µM | < 9.85 µM | < 9.85 µM | < 9.85
4 | COc1ccc2c(c1)OC[C@@H](Cc1ccc(OC)c(OC)c1)[C@H]2O [TETRAHYDROSAPPANONE A TRIMETHYL ETHER] | > 150 µM | > 150 µM | > 150 µM | > 150
5 | O=C(O[C@@H]1Cc2c(O)cc(O)cc2O[C@@H]1c1cc(O)c(=O)c2c(O)c(O)cc([C@H]3Oc4cc(O)cc(O)c4C[C@H]3OC(=O)c3cc(O)c(O)c(O)c3)c2c1)c1cc(O)c(O)c(O)c1 [THEAFLAVIN DIGALLATE] | > 150 µM | > 150 µM | 83.8 µM | 57.3
6 | O=C(O[C@@H]1Cc2c(O)cc(O)cc2O[C@@H]1c1cc(O)c(=O)c2c(O)c(O)cc([C@H]3Oc4cc(O)cc(O)c4C[C@H]3O)c2c1)c1cc(O)c(O)c(O)c1 [THEAFLAVIN MONOGALLATES] | 111 µM | 93.4 µM | 14.8 µM | 20.5
7 | O=C(Nc1ccc(C(=O)O)c(O)c1)c1ccccc1 [THERAPAS] | 29.8 µM | 29.3 µM | 17.6 µM | 11.8
8 | CCCCCCCCCCCCCCCC[N+](C)(C)CCN(Cc1ccc(OC)cc1)c1ncccn1 [THONZIDE] | < 9.85 µM | 14.9 µM | < 9.85 µM | < 9.85
9 | COC(=O)[C@@]1(C)CCC[C@]2(C)c3ccc(O)c(C(C)C)c3CCC12 (some centres undefined) [TOTAROL-19-CARBOXYLIC ACID, METHYL ESTER] | 27.6 µM | 62.8 µM | 66 µM | 15.6
10 | O=C(O)Cc1cc(I)c(Oc2ccc(O)c(I)c2)c(I)c1 [TRIAC] | 12.5 µM | 23 µM | 11.1 µM | < 9.85
11 | CSc1nc2cc(Cl)c(Oc3cccc(Cl)c3Cl)cc2[nH]1 [TRICLABENDAZOLE] | 14.4 µM | 13.9 µM | < 9.85 µM | < 9.85
12 | OCCN1CCN(CCCN2c3ccccc3Sc3ccc(Cl)cc32)CC1 [TRILAFON] | 57 µM | 52.6 µM | 18.4 µM | 15.8
13 | COc1cc(Cc2cnc(N)nc2N)cc(OC)c1OC [TRIMPEX] | < 9.85 µM | < 9.85 µM | < 9.85 µM | < 9.85
14 | CC[C@H]1OC(=O)C[C@@H](O)[C@H](C)[C@@H](O[C@@H]2O[C@H](C)[C@@H](O[C@H]3C[C@@](C)(O)[C@@H](O)[C@H](C)O3)[C@H](N(C)C)[C@H]2O)[C@@H](CC=O)C[C@@H](C)C(=O)/C=C/C(C)=C/[C@@H]1CO[C@@H]1O[C@H](C)[C@@H](O)[C@@H](OC)[C@H]1OC [TYLAN] | < 9.85 µM | < 9.85 µM | < 9.85 µM | < 9.85
15 | CC/C(=C(\c1ccccc1)c1ccc(OCCN(C)C)cc1)c1ccccc1 [Tamoxifen citrate] | 14.9 µM | 14.9 µM | < 9.85 µM | < 9.85
16 | CC/C(=C(\c1ccccc1)c1ccc(OCCN(C)C)cc1)c1ccccc1 [Tamoxifen] | 14.8 µM | 14.9 µM | 12.2 µM | < 9.85
17 | Cc1coc2c1C(=O)C(=O)c1c-2ccc2c1CCCC2(C)C [Tanshinone IIA (Tanshinone B)] | 7.87 µM and 35.3 µM | 41.1 µM and 32.8 µM | 3.7 µM and 13.9 µM | 
18 | Cc1coc2c1C(=O)C(=O)c1c-2ccc2c(C)cccc12 [Tanshinone I] | 130 µM | > 150 µM | 76.7 µM | 64
19 | C[C@@H](O)[C@H]1C(=O)N2C(C(=O)OCOC(=O)C(C)(C)C)=C(SC3CN(C4=NCCS4)C3)[C@H](C)[C@H]12 [Tebipenem pivoxil (L-084)] | 1.76 µM | 1.77 µM | < 0.498 µM | < 0.498
20 | CCN(CC)C(=S)SSC(=S)N(CC)CC [Tetraethylthiuram disulfide] | 33.4 µM | 36.1 µM | < 9.85 µM | < 9.85

Row | Structure (SMILES) | IC50 ([1]; fluorescent label: DsRed) | IC50 ([1]; fluorescent label: GFP) | IC50 ([2]; fluorescent label: DsRed) | IC50 ([2]; fluorescent label: GFP) [µM]
21 | CSc1ccc2c(c1)N(CCC1CCCCN1C)c1ccccc1S2 (centres undefined) [Thioridazine hydrochloride] | 57.7 µM | 50.3 µM | < 9.85 µM | 14.8
22 | CC[C@H]1OC(=O)C[C@@H](O)[C@H](C)[C@@H](O[C@@H]2O[C@H](C)[C@@H](O)[C@H](N(C)C)[C@H]2O)[C@@H](CCN2C[C@H](C)C[C@H](C)C2)C[C@@H](C)C(=O)/C=C/C(C)=C/[C@@H]1CO[C@@H]1O[C@H](C)[C@@H](O)[C@@H](OC)[C@H]1OC [Tilmicosin] | < 9.85 µM | < 9.85 µM | < 9.85 µM | < 9.85
23 | Clc1ccc(C(Cn2ccnc2)OCc2ccsc2Cl)c(Cl)c1 (centres undefined) [Tioconazole] | 29.7 µM | 17.8 µM | 3.9 µM | 14.2
24 | Cn1cncc1[C@@](N)(c1ccc(Cl)cc1)c1ccc2c(c1)c(-c1cccc(Cl)c1)cc(=O)n2C [Tipifarnib (Zarnestra)] | 29.6 µM | 15.1 µM | < 9.85 µM | 11.3
25 | NC[C@H]1O[C@H](O[C@H]2[C@H](O)[C@@H](O[C@H]3O[C@H](CO)[C@@H](O)[C@H](N)[C@H]3O)[C@H](N)C[C@@H]2N)[C@H](N)C[C@@H]1O [Tobramycin] | 16 µM | 27.6 µM | 32 µM | 33.8
26 | Cc1ccc(C(=O)c2cc(O)c(O)c([N+](=O)[O-])c2)cc1 [Tolcapone] | < 9.85 µM | 14.4 µM | < 9.85 µM | < 9.85
27 | Cc1cc(-n2c(=O)[nH]c(=O)n(C)c2=O)ccc1Oc1ccc(SC(F)(F)F)cc1 [Toltrazuril] | 34.6 µM | 71.9 µM | 24.3 µM | 27.3
28 | CN1CCN(CCCN2c3ccccc3Sc3ccc(C(F)(F)F)cc32)CC1 [Trifluoperazine 2HCl] | 56.9 µM | 57.1 µM | 16.5 µM | 14.5
29 | CN1CCN(CCCN2c3ccccc3Sc3ccc(C(F)(F)F)cc32)CC1 [Trifluoperazine dihydrochloride] | 51.1 µM | 52.4 µM | 15.7 µM | 16.5
30 | COc1cc(Cc2cnc(N)nc2N)cc(OC)c1OC [Trimethoprim] | 12.4 µM and < 9.85 µM | 14.6 µM and 14.2 µM | < 9.85 µM | < 9.85
31 | N[C@@H]1[C@H]2CN(c3nc4c(cc3F)c(=O)c(C(=O)O)cn4-c3ccc(F)cc3F)C[C@@H]12 [Trovafloxacin mesylate] | < 9.85 µM | < 9.85 µM | < 9.85 µM | < 9.85
32 | CC[C@H]1OC(=O)C[C@@H](O)[C@H](C)[C@@H](O[C@@H]2O[C@H](C)[C@@H](O[C@H]3C[C@@](C)(O)[C@@H](O)[C@H](C)O3)[C@H](N(C)C)[C@H]2O)[C@@H](CC=O)C[C@@H](C)C(=O)/C=C/C(C)=C/[C@@H]1CO[C@@H]1O[C@H](C)[C@@H](O)[C@@H](OC)[C@H]1OC [Tylosin tartrate] | < 9.85 µM | < 9.85 µM | < 9.85 µM | < 9.85
33 | CC(C)(C)c1cc(C=C(C#N)C#N)cc(C(C)(C)C)c1O [Tyrphostin A9] | < 9.85 µM | 26 µM | 35.4 µM | < 9.85
34 | CC(C)(C)c1cc(/C=C(\C#N)C(N)=S)cc(C(C)(C)C)c1O [Tyrphostin AG 879 (AG 879)] | < 9.85 µM | 14 µM | < 9.85 µM | < 9.85
35 | COc1cccc(C2(O)CCCCC2CN(C)C)c1 (centres undefined) [ULTRAM] | 131 µM | 135 µM | 101 µM | 60.8
36 | CCn1cc(C(=O)O)c(=O)c2cc3c(cc21)OCO3 [UTIBID] | 15.5 µM | 15 µM | 15.2 µM | < 9.85
37 | Clc1ccc(C(Cn2ccnc2)OCc2ccsc2Cl)c(Cl)c1 (centres undefined) [VAGISTAT] | 29.6 µM | 30.6 µM | 16.9 µM | 15
38 | CN[C@H](CC(C)C)C(=O)N[C@H]1C(=O)N[C@@H](CC(N)=O)C(=O)N[C@H]2C(=O)N[C@H]3C(=O)N[C@H](C(=O)N[C@H](C(=O)O)c4cc(O)cc(O)c4-c4cc3ccc4O)[C@H](O)c3ccc(c(Cl)c3)Oc3cc2cc(c3O[C@@H]2O[C@H](CO)[C@@H](O)[C@H](O)[C@H]2O[C@H]2C[C@](C)(N)[C@H](O)[C@H](C)O2)Oc2ccc(cc2Cl)[C@H]1O [VANCOCIN] | < 9.85 µM | < 9.85 µM | < 9.85 µM | < 9.85
39 | O=C(O[C@H]1CN2CCC1CC2)N1CCc2ccccc2[C@@H]1c1ccccc1 [VESICARE] | 47.9 µM | 68.2 µM | 31.8 µM | 19.9
40 | Oc1c(I)cc(Cl)c2cccnc12 [VIOFORM] | 15 µM | 14.9 µM | < 9.85 µM | < 9.85
